Measured values: patent US20250049751A1, “L-THEANINE AND TETRAHYDROCANNABINOL FORMULATION” (priority 2018, published 2025)
“Also recorded” adds a separate entry of the source.

Key:
rats [1] = assay: Sucrose preference testing for depression/anhedonia symptoms; format: in vivo, rat; conditions: 2% sucrose vs. plain water, chronic THC 10 days twice daily i.p., L-Theanine 10 mg/kg, FIG. 2
Protocol: (§1) Four groups of ten rats were studied. The first group of rats was given twice daily intra-peritoneal doses of THC. The dosage regime was as follows
(§2) Immediately preceding each dose of THC, each rat was dosed with 10 mg/kg L-Theanine, administered intra-peritoneally.
(§3) The second group of rats was given the same doses of THC and no L-Theanine.
(§4) The third group of rats was given twice daily doses of L-Theanine but no THC.
(§5) The fourth group of rats was given neither THC nor L-Theanine.
(§6) All groups of rats were fed, watered and otherwise housed identically. At the end of the 10 day period, the rats were subject to a serious of tests.
Rats were water-restricted for 12 hrs prior to being given a 2-bottle choice test between a solution containing 2% sucrose vs. plain water. The amounts consumed from each bottle were measured over 24 hr for 4 days. A sucrose preference index was calculated for each rat and averaged across groups by taking the percentage of the volume of sucrose intake over the total volume of fluid intake over […].

rats [2] = assay: Novel object memory test (Novel Object Recognition); format: in vivo, rat; conditions: 60 min delay, chronic THC 10 days twice daily i.p., L-Theanine 10 mg/kg, FIG. 3
Protocol: as §1, §2, §3, §4, §5, §6
The test sessions consisted of two 3-min trials. During the first trial (T1 acquisition trial), each rat was placed in the center of an arena containing two identical objects placed in the far corners 15 cm from the side wall. […] Times spent in exploration were videotaped with a video-tracking system (ANY-maze; Stoelting) and analyzed by an experimenter blind to the treatment conditions. Exploration times were recorded and used to calculate object recognition index [time spent with novel object/total time exploring both objects]

rats [3] = assay: Paired-pulse (prepulse) inhibition test for cognitive filtering deficits; format: in vivo, rat; conditions: L-Theanine 10 mg/kg; for prepulse inhibition / sensory filtering: both 30 and 100 msec between pre-pulse and test pulse, 10 days twice daily i.p. THC 2.5-10 mg/kg, relative to vehicle control rats, FIG. 1
Protocol: as §1, §2, §3, §4, §5, §6
Rats were acclimatized to the startle chambers (Med Associates) for 5 min over 3 days. On the last day of acclimation, rats were tested in an input/output (I/O) function consisting of 12 increasing startle pulses (from 65 to 120 dB, 5 dB increments) to determine the appropriate gain setting for each individual rat. The testing procedure consisted of the following phases: the acclimation phase, a habituation phase (Block 1), and PPI measurement (Block 2). During acclimation, rats were exposed to the chambers and white background noise (68 dB) for 5 min. During Block 1, 10 pulse alone trials (110 dB white noise, 20 ms duration) were delivered at 15-20 s inter-trial intervals. Block 2 consisted of […] presented 10 times in a pseudo-randomized order at 15-20 s intervals: 10 pulse-alone trials, and 10 of each of the three different prepulse-pulse trial types (72, 76, 80) with interstimulus intervals of 30 and 100 ms. Pulse-alone trials consisted of a startle stimulus-only presentation, whereas prepulse-pulse trials consisted of the presentation of a weaker non-startling prepulse (white noise, 20 ms duration) before the startling stimulus. PPI was calculated for each animal and each trial condition as PPI (%)=(1-average startle amplitude to pulse with prepulse/average startle amplitude to pulse only)×100.

[4] = test system: glycogen-synthase-kinase-3A; assay: Western Blot of GSK-3α protein expression; format: in vivo, rat; conditions: rats, chronic THC exposure, L-Theanine 10 mg/kg
Protocol: (§7) FIG. 7. […] These molecular signaling effects are prevented by co-administration with L-Theanine (10 mg/kg), as measured in a Western Blot procedure.
as §1, §2, §3, §4, §5, §6

Akt at serine 473 = assay: Protein expression of Akt at serine 473 in prefrontal cortex; format: in vivo; conditions: prefrontal cortex of rat brain; chronic THC, L-Theanine 10 mg/kg; FIG. 8
[5] = test system: single dopamine neurons in the ventral tegmental area; assay: In vivo single-unit electrophysiology recordings in the VTA; set-up: species or system rat; conditions: rats; chronic THC exposure, L-Theanine 10 mg/kg; FIG. 4
Protocol: as §1, §2, §3, §4, §5, §6
(§8) Extracellular single-unit electrophysiological recordings were performed in vivo in adult (>PND 75) pretreated rats during adolescence. The recordings were taken from either putative glutamatergic (GLUT) PFC neurons or dopaminergic (DA) VTA neurons. Rats were anesthetized with urethane (1.4 g/kg, i.p., Sigma-Aldrich) and placed in a stereotaxic frame with body temperature maintained at 37° C. […] Extracellular signals were amplified (×5000) using a MultiClamp 700B amplifier (Molecular Devices), digitized at 25 kHz and recorded on the computer using a Digidata 1440 A and pClamp software (Molecular Devices). […]

[6] = test system: glycogen-synthase-kinase-3B; assay: Western Blot of GSK-3β protein expression; format: in vivo, rat; conditions: rats, chronic THC exposure, L-Theanine 10 mg/kg
Protocol: as §7, §1, §2, §3, §4, §5, §6

[7] = test system: single neurons of the prefrontal cortex (PFC); assay: In vivo single-unit electrophysiology recordings in the PFC (burst testing); set-up: species or system rat; conditions: rats; chronic THC exposure, L-Theanine 10 mg/kg; FIG. 5
Protocol: as §1, §2, §3, §4, §5, §6
as §8, with “neurons.” for “neurons. Rats were anesthetized with urethane (1.4 g/kg, i.p., Sigma-Aldrich) and placed in a stereotaxic frame with body temperature maintained at 37° C.”
Putative mPFC pyramidal cells were identified based on established criteria85: (1) firing frequency <10 Hz, (2) waveform shape, and (3) action potential duration >2.5 ms. […] After an individual putative pyramidal neuron was isolated, its spontaneous activity was recorded for 5 min. […]

[8] = test system: Akt (protein kinase B) threanine308; assay: Protein expression of Akt308 in prefrontal cortex; format: in vivo; conditions: prefrontal cortex of rat brain; chronic THC, L-Theanine 10 mg/kg; FIG. 8
Protocol: FIG. 8. […] This effect is prevented by L-Theanine (10 mg/kg) co-administration.
as §1, §2, §3, §4, §5, §6

[9] = test system: gamma-band activity in the rat prefrontal cortex; assay: Local field potential recordings in prefrontal cortex (normalized power testing); format: in vivo; conditions: chronic THC exposure, L-Theanine 10 mg/kg, 0-100 Hz range
Protocol: as §1, §2, §3, §4, §5, §6, §8

| SMILES | sucrose preference (anhedonic, depression-like effects) (rats [1]) | object recognition (object memory) (rats [2]) | prepulse inhibition / sensory filtering (rats [3]) | protein expression levels of GSK-3α ([4]; FIG. 7) | protein expression levels of GSK-3α ([4]; FIG. 7, listed as THC-alone) | effect on Akt at serine 473 (Akt at serine 473) | activity rates of single dopamine neurons in the ventral tegmental area [5] | protein expression levels of GSK-3β ([6]; FIG. 7) | protein expression levels of GSK-3β ([6]; FIG. 7, listed as THC-alone) | bursting pattern activity of single neurons of the prefrontal cortex [7] | protein expression levels of Akt308 [8] | gamma-band activity (local field potentials, normalized power) ([9]; FIG. 6) | gamma-band activity (local field potentials, normalized power) ([9]; FIG. 6, listed as THC only) | sensorimotor filtering (paired-pulse-inhibition) (rats [3]; 30 msec stimulus intervals, 72 and 84 decibel stimulus intensities, FIG. 1A) | sensorimotor filtering (paired-pulse-inhibition) (rats [3]; 100 msec stimulus intervals, 72, 76 and 80 decibel stimulus intensities, FIG. 1B) |
| --- | --- | --- | --- | --- | --- | --- | --- | --- | --- | --- | --- | --- | --- | --- | --- |
| CCNC(=O)CC[C@H](N)C(=O)O [L-Theanine] | no apparent effects on sucrose preference | no apparent effects on object recognition | no apparent effects on sensory filtering | – | – | – | – | – | – | – | – | – | – | – | – |
| CCCCCc1cc(O)c2c(c1)OC(C)(C)[C@@H]1CCC(C)=C[C@@H]21 [THC, Δ-9-tetrahydrocannabinol] | anhedonic (depression-like) effects; also recorded: strong sucrose preference reduction | significant object memory impairment; also recorded: strong reductions in object recognition | strong deficits in the prepulse inhibition | significant loss in the protein expression levels | significant decrease | no effect | hyperactive activity rates | significant loss in the protein expression levels | significant decrease | hyperactive ‘bursting’ pattern activity state; also recorded: neuronal hyperactivity | significant downregulation in protein expression levels of Akt308 | significant decrease in gamma-band activity states | generally decreased activity | disruption of sensorimotor filtering | disruption of sensorimotor filtering |
